Test results from patent US20030207819A1, “Compositions and methods for treating inflammatory connective tissue diseases” (priority 2002, published 2003).
Entries after “also recorded” stand apart in the source; their conditions may differ.

Experiments:
Assay type in all cases: in vivo, human
[1] = tested on: patient with chondrocalcinosis leading to pseudorheumatoid pseudogout syndrome; assay: Example 4: clarithromycin re-challenge of Example 3 patient, symptoms and laboratory assessments
Description: Subsequent to the observations made in Example 3, the patient was re-challenged with clarithromycin, and re-evaluated as to symptomatic efficiency. In parallel with clinical observations, laboratory assessments including erythrocyte sedimentation rate, C-reactive 1 5 protein, and serum interleukins 1 and 6 were measured. The laboratory results are illustrated in Table 2.
On Jun. 15, 2002 the patient from Example 3 underwent a right pneumonectomy for treatment of recurrent lung cancer. During that hospitalization, clarithromycin was discontinued.
The patient underwent formal re-challenge with clarithromycin on Aug. 19, 2002 (Table 2). At that time their medications included ibuprofen at 400 mg/day, acetaminophen at 500 mg/as needed, prednisone at 5 mg/daily, CELEXA™ (Forest Pharmaceuticals, Inc.) at […], REMURON® (Organon Inc.) at 7.5 mg/h.s., DURICEF® (Bristol) at 500 mg b.i.d., TIMOPTIC® eye drops (Merck & Co.), and multi-vitamins. […] Clarithromycin at 500 mg b.i.d. was restarted on Aug. 20, 2002. When seen on Aug. […] 19, 2002. […] 28, 2002. On Sep. […] Ibuprofen was decreased to […] on Sep. 5, 2002. On Sep. […] On Sep.

[2] = tested on: patient with undifferentiated connective tissue disease; assay: Example 6: clarithromycin trial, VAS and joint assessment; settings: for Patient VAS (Pain): baseline 89; for Practitioner VAS (Global): baseline 60; for Patient VAS (Global): baseline 63
Excerpt: A patient, was first seen in September 1999. […] They have used a number of anti-inflammatory agents frequently for therapy.
On the basis of the findings, including recurrent episodes of arthritis, Raynaud's, and thickening of the hands, connective tissue disease diagnoses such as Mixed Connective Tissue Disease or Progressive Systemic Sclerosis were considered.
Based on these findings, a diagnosis of Undifferentiated Connective Tissue Disease was made. Therapy was initiated with hydroxychloroquine ([…]®, Sanofi-Synthelabo, Inc.) and a non-steroidal anti-inflammatory agent. They utilized steroid dose packs periodically for symptomatic relief of their peripheral symptoms as well as their neck symptoms.
On examination, they had symptoms and findings much as before and a diagnosis of Undifferentiated Connective Tissue Disease was made. The patient agreed to undergo a trial with clarithromycin.
Following screening and baseline evaluations, the patient was begun on clarithromycin (BIAXIN®, Abbott Laboratories).
25, 2003 (“Visit 3”), for their first recheck visit.
When seen for their one month evaluation, the patient had been off steroid medication for approximately ten days.
Further assessment of their status was made on Apr. 13, 2003 at which time they were now off steroids for almost a one-month period.
Patient was again seen Apr. 21, 2003 (“Visit Four”), for their formal two-month follow-up on clarithromycin.

[3] = tested on: patient with low-grade connective tissue symptoms; assay: Example 5: clarithromycin study, VAS and joint assessment
Excerpt: In 1991, it was elected to begin the patient on hydroxychloroquine ([…]®, Sanofi-Synthelabo, Inc.) given their low-grade connective tissue symptoms not responding to non-steroidal anti-inflammatory therapy. […] A trial of hydroxychloroquine was again initiated to see how they would tolerate it. […] Hydroxychloroquine was discontinued when they wanted to attempt getting pregnant again. Therapy most recently consisted of non-steroidal inflammatory agents and physical therapy.
On Feb. 27, 2003, the patient agreed to participate in the clarithromycin study. […] The patient was begun on clarithromycin (BIAXIN®, Abbott Laboratories) 500 mg twice per day.

[4] = tested on: patient with undifferentiated connective tissue disease; assay: Example 1: clinical observation of patient on clarithromycin; settings: person
Excerpt: We elected to continue them on this antibiotic. […] Because the patient was on Lodine (NSAID) at the same time, we elected to see if they could stop the Lodine and still have relief of symptoms.

[5] = tested on: patient with chondrocalcinosis leading to pseudorheumatoid pseudogout syndrome; assay: Example 3: clinical observation of patient on clarithromycin; settings: person; clarithromycin 500 mg b.i.d. begun two weeks prior for pneumonia
Description: A patient has severe ditTuse generalized chondrocalcinosis leading to pseudorheumatoid pseudogout syndrome. Given the intensity of their chronic synovitis and the lack of response to steroids as well as NSAIDs, they were put on methotrexate, 10 mg/week and infliximab ([…]®, Centocor, Inc.), after which they did satisfactorily. The patient had bilateral total knee replacements and, subsequently was taken off the infliximab when they developed a knee infection postoperatively. The patient continued to have diffuse aches and pains and joint swelling. When seen in the office on Mar. 12, 2002, they spontaneously asked whether the medicine they were taking for their pneumonia could have an effect on their arthritis. Apparently they had begun clarithromycin 500 mg b.i.d. for their pneumonia two weeks prior and said they had “never felt as well” with respect to their joint symptoms as they had during the subsequent several days. They continued to feel much improved and asked if they could stay on the antibiotic.

[6] = Aug. 27, 2002, on clarithromycin
[7] = Oct. 8, 2002, off clarithromycin
[8] = Sep. 4, 2002, on clarithromycin
[9] = Sep. 9, 2002, on clarithromycin
[10] = Sep. 23, 2002, off clarithromycin
[11] = Visit Four, Apr. 21, 2003, clarithromycin for two months
[12] = Visit Four, clarithromycin for two months
[13] = Visit Three, clarithromycin for one month, baseline 3
[14] = Visit Three, clarithromycin for one month

Work on `CC[C@H]1OC(=O)[C@H](C)[C@@H](O[C@H]2C[C@@](C)(OC)[C@@H](O)[C@H](C)O2)[C@H](C)[C@@H](O[C@@H]2O[C@H](C)C[C@H](N(C)C)[C@H]2O)[C@](C)(OC)C[C@@H](C)C(=O)[C@H](C)[C@@H](O)[C@]1(C)O` [clarithromycin, 6-O-methylerythromycin] yielded a CPR [1, 6] of 0.74 mg/dL, an ESR [1, 6] of 18 mm/hr and an IL-6 [1, 6] of 6.8 pg/mL. For the same compound, the Symptoms ([1]; Aug. 27, 2002, on clarithromycin 500 mg BID since Aug. 20, 2002, compared to baseline Aug. 19, 2002) was “had not observed improvement; also recorded: No change”, the CPR [1, 7] was 0.77 mg/dL and the ESR [1, 7] was 10 mm/hr. For the same compound, the IL-6 [1, 7] was 1.8 pg/mL, the Symptoms ([1]; Oct. 8, 2002, off clarithromycin, prednisone 5 mg QD) was “continued active” and the CPR [1, 8] was 0.78 mg/dL. For the same compound, the ESR [1, 8] was 10 mm/hr, the IL-6 [1, 8] was 2.5 pg/mL and the Symptoms ([1]; Sep. 4, 2002, on clarithromycin, ibuprofen increased to 800 mg/day on Aug. 28, 2002) was 40% better. For the same compound, the CPR [1, 9] was 1.06 mg/dL, the ESR [1, 9] was 11 mm/hr and the IL-6 [1, 9] was 4.5 pg/mL. For the same compound, the Symptoms ([1]; Sep. 9, 2002, on clarithromycin, discontinued at this visit, ibuprofen 600 mg/day) was “No change”, the Symptoms ([1]; Sep. 16, 2002, off clarithromycin, ibuprofen 400 mg/day) was “Worse” and the IL-6 ([1]; Sep. 16, 2002, one week following clarithromycin discontinuation, baseline 2.2) was 33.1 pg/mL. The ESR [1, 10] was 37 mm/hr, the IL-6 [1, 10] was 6.4 pg/mL and the Symptoms [1, 10] was “continued worsening; also recorded: Worse”. For the same compound, the CPR ([1]; Sep. 23, 2002, off clarithromycin, baseline 0.85) was 3.51 mg/dL, the joints ([1]; clarithromycin begun again as antimicrobial therapy after pneumonectomy) was “once again improved” and the arthritis symptoms ([1]; five to six days following discontinuation of clarithromycin, hospitalization June 2002) was “significantly worse”. For the same compound, the ESR ([1]; off clarithromycin, increase from 11 mm at baseline, date not given in the text) was 37 mm, the “change in IL-1” value ([1]; over the re-challenge Aug. 19 to Oct. 8, 2002) was “No significant change” and the side reaction ([2]; Apr. 13, 2003, on clarithromycin) was “bad taste”. For the same compound, the “pain VAS, patient rating” value ([2]; Apr. 13, 2003, on clarithromycin, off steroids almost one month) was 25 mm, the “patient statement of improvement” value [2, 11] was 80% better and the side reaction [2, 11] was “mild bad taste”. For the same compound, the “Patient VAS (Pain)” value [2, 11] was 11 mm, the “Practitioner VAS (Global)” value [2, 12] was 4 mm and the “Patient VAS (Global)” value [2, 12] was 14 mm. The “Patient VAS (Pain)” value ([2]; Visit Three, Mar. 25, 2003, clarithromycin for one month, off steroid about ten days) was 16 mm, the “Tender/Painful Joints” value [2, 13] was 0 and the “Practitioner VAS (Global)” value [2, 14] was 31 mm. For the same compound, the “Patient VAS (Global)” value [2, 14] was 51 mm, the “Patient VAS (Pain)” value ([3]; Visit Three, Apr. 2, 2003, clarithromycin 500 mg twice per day for one month, VAS 0 to 100 mm, baseline 67) was 26 mm and the “joint pain, patient statement” value ([3]; Visit Three, clarithromycin 500 mg twice per day) was “became better pretty much right away”. The “joint tenderness and swelling on physical examination” value [3, 14] was “decreased joint tenderness and swelling”, the “Tender/Painful Joints” value [3, 13] was 0 and the “Swollen Joints” value ([3]; Visit Three, clarithromycin for one month, baseline 6) was 1. For the same compound, the “Patient VAS (Global)” value ([3]; Visit Three, clarithromycin for one month, baseline 30) was 12 mm, the “Practitioner VAS (Global)” value ([3]; Visit Three, clarithromycin for one month, baseline 54) was 25 mm and the side reaction ([3]; clarithromycin 500 mg twice per day, one month) was “metallic taste”. The Symptoms ([4]; back on 500 mg/bid after 250 mg/bid) was “improved essentially completely”, the “symptoms with respect to connective tissue changes” value ([4]; clarithromycin 500 mg b.i.d. begun December 1998) was “significantly improved” and the Symptoms ([4]; dose reduced to 250 mg/bid) was “symptoms returned”. The “undifferentiated connective disease status” value ([4]; last seen Feb. 12, 2002, continued clarithromycin) was “under control”, the joint symptoms ([4]; reduced dose of 750 mg/day) was “increased swelling of the hands, painful wrists, knee swelling and hand stiffness” and the joint symptoms [5] was “much improved”.
